The target of the test is T1, α-amylase from porcine pancreatic (Sus scrofa, UniProt P00690).
T1 sequence (P00690 16-511): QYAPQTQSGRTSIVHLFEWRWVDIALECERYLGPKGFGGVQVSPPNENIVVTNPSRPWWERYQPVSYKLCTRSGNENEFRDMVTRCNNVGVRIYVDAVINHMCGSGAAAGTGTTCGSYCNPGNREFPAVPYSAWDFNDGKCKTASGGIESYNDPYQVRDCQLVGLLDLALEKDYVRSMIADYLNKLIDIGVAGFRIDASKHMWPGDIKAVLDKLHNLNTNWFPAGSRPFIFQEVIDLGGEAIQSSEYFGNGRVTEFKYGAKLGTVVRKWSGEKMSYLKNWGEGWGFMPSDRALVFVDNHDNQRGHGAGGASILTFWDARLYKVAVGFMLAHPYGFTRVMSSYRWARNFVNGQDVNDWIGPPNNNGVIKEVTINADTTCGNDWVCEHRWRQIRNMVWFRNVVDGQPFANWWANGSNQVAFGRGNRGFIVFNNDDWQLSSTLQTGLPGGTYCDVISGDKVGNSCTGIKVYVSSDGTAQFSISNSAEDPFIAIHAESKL
Briefly: In vitro α-amylase inhibition assay. It is filed as biochemical.

In paper PMC10157847 (ACS Omega, 2023) one finds IC50 data, which are given here for six molecules.

In general, IC50 refers to the concentration needed to halve the response being measured.

Like-named read-outs stand apart in the source and are kept apart here.

On to `Cc1ccc([N+](=O)[O-])cc1S(=O)(=O)N/N=C1\C(=O)Nc2ccc([N+](=O)[O-])cc21` [Compound 4], for which the 50% inhibitory concentration (IC50) is 13.3 ± 0.3 µM. With `O=C1Nc2ccc([N+](=O)[O-])cc2/C1=N/NS(=O)(=O)c1ccc([N+](=O)[O-])cc1` [Compound 5], the IC50 was 13.2 ± 0.2 µM.

For the molecule `Cc1ccc([N+](=O)[O-])cc1S(=O)(=O)N/N=C1\C(=O)Nc2ccccc21` [Compound 9], the IC50 is 13.2 ± 0.3 µM.

As for `O=C1Nc2ccccc2/C1=N/NS(=O)(=O)c1ccc([N+](=O)[O-])cc1` [Compound 10], the IC50 was 13.2 ± 0.2 µM. On the same count and under the same terms, for `Cc1ccc([N+](=O)[O-])cc1S(=O)(=O)N/N=C1\C(=O)Nc2ccc(Cl)cc21` [Compound 15, (Z)-N'-(5-chloro-2-oxoindolin-3-ylidene)-2-methyl-5-nitrobenzenesulfonohydrazide] the value was 14.9 ± 0.2 µM. With `O=C1Nc2ccc(Cl)cc2/C1=N/NS(=O)(=O)c1ccc([N+](=O)[O-])cc1` [Compound 16, (Z)-N'-(5-chloro-2-oxoindolin-3-ylidene)-4-nitrobenzenesulfonohydrazide], the IC50 (read-out: IC50 ± SEM Alpha-amylase, porcine pancreatic α-amylase, starch) amounted to 12.3 ± 20 µM.
